Laboratory results published in patent US20100069393A1, “METHOD OF TREATMENT AND AGENTS USEFUL FOR SAME” (PRANA BIOTECHNOLOGY LIMITED, priority 2006, published 2010).

Legend:
[1] = Mice plasma concentration; type: in vivo; settings: for Mice plasma concentration: presence in plasma at one or two time points (between 30 min and 4 h); for Mice plasma concentration (single dose) / Mice plasma concentration at 10 mg/kg: one or two time points (between 30 min and 4 h)
[2] = Neurotoxicity assay: MTS viability of primary cortical neuronal cultures; type: cell-based, mouse; settings: BL6Jx129sv, mouse, primary cortical neuronal cultures, Neuronal cells, read-out: Cytotoxicity (% viable at 1 and 10 uM); for viability at 4 days, 1 uM: test compound 1 uM; for viability at 4 days, 10 uM: test compound 10 uM
[3] = In vivo toxicity, visual observations; settings: number of days
[4] = Cytotoxicity: viability of M17 cells; settings: human, M17 neuroblastoma cells, Cytotoxicity (% viable at 1 and 10 uM); for viability at 1 uM: test compound 1 uM; for viability at 10 uM: test compound 10 uM

SMILES	Mice plasma concentration [1]	viability at 4 days, 1 uM [2] [%]	viability at 4 days, 10 uM [2] [%]	Toxicity at 30 mg/kg [3]	Mice plasma concentration (single dose) [1]	viability at 1 uM [4] [%]	viability at 10 uM [4] [%]	Mice plasma concentration at 10 mg/kg [1]	Toxicity at 10 mg/kg [3]
O=c1c(-c2ccc(Cl)cc2)cnc2c(O)c(I)ccn12	Up to 450 ng/mL	41	33	10 days, mild toxic signs	–	–	–	–	–
O=c1[nH]cnc2c(O)c(Cl)cc(Cl)c12	–	100	93	3 days, none	Below 100 ng/mL (single dose)	–	–	–	–
Oc1c(C2CC2)ncc2cccnc12	–	100	98	6 days, none	Up to 350 ng/mL (single dose)	–	–	–	–
CN1CCCC1CCn1cnc2c(O)c(Cl)cc(Cl)c2c1=O (stereo not drawn)	–	105	94	10 days, none	Up to 262 ng/mL in mice (single dose)	–	–	–	–
O=c1c2c(Cl)cc(Cl)c(O)c2ncn1CCN1CCOCC1	–	98	81	10 days, none	Up to 10 ng/mL (single dose)	–	–	–	–
CN1CCN(n2cnc3c(O)c(Cl)cc(Cl)c3c2=O)CC1	Up to 207 ng/mL	96	91	10 days, none	–	–	–	–	–
CCn1nccc1-n1cnc2c(O)c(Cl)cc(Cl)c2c1=O	Up to 3896 ng/mL	102	94	10 days, none	–	–	–	–	–
Cc1ccc(-n2cnc3c(O)c(Cl)cc(Cl)c3c2=O)nc1	Up to 39 ng/mL	96	83	10 days, none	–	–	–	–	–
O=c1c2c(Cl)cc(Cl)c(O)c2ncn1CCc1ccccn1	Up to 59 ng/mL	100	92	10 days, none	–	–	–	–	–
COc1ccc(-n2cnc3c(O)c(Cl)cc(Cl)c3c2=O)nc1	–	122	93	10 days, none	Up to 80 ng/mL (single dose)	–	–	–	–
Br.Cc1cccnc1Cn1cnc2c(O)c(Cl)cc(Cl)c2c1=O	Up to 439 ng/mL	99	88	10 days, 3/4 mild signs	–	–	–	–	–
CCCn1cnc2c(O)c(I)ccc2c1=O	–	–	–	10 days, none	Up to 1096 ng/mL (single dose)	–	–	–	–
O=c1c2ccc(I)c(O)c2ncn1Cc1ccccn1	Up to 1538 ng/mL	–	–	10 days, none	–	93.8	84.5	–	–
CCc1cnc2c(O)c(I)ccn2c1=O	–	–	–	–	–	82.5	23.3	At 10 mg/kg: Up to 7082 ng/mL	At 10 mg/kg 10 days, none
Br.CCN(CC)Cc1nc2c(O)c(Cl)cc(Cl)c2c(=O)[nH]1	Up to 2289 ng/mL	–	–	10 days, none	–	106	99.1	–	–
O=c1c2cccc(O)c2ncn1Cc1cccc(Cn2cnc3c(O)cccc3c2=O)n1	Up to 128.4 ng/mL	–	–	10 days, none	–	117	106	–	–
CC(C)c1cnc2c(O)cccn2c1=O	Up to 409 ng/ml ng/mL	–	–	10 days, none	–	99.7	45.6	–	–
CCNC(=O)c1cnc2c(O)c(CC)ncc2c1.Cl	–	–	–	–	Up to 125.5 ng/mL (Single dose)	84.4	92.1	–	–
CCn1cnc2c(O)c(I)cc(Cl)c2c1=O	Up to 1802 ng/mL	–	–	10 days, 2/4 deaths	–	101	50.4	–	–

SMILES	Mice plasma concentration [1]	viability at 4 days, 1 uM [2] [%]	viability at 4 days, 10 uM [2] [%]	Toxicity at 30 mg/kg [3]	Mice plasma concentration (single dose) [1]	viability at 1 uM [4] [%]	viability at 10 uM [4] [%]	Mice plasma concentration at 10 mg/kg [1]	Toxicity at 10 mg/kg [3]
Br.CN(C)Cc1nc2c(O)c(Cl)cc(Cl)c2c(=O)[nH]1	Up to 642.6 ng/mL	–	–	10 days, none	–	97.4	100	–	–
CCCCc1cnc2c(O)cccn2c1=S	Up to 57 ng/ml ng/mL	–	–	7 days, 2/4 deaths	–	–	–	–	–
CCCc1cnc2c(O)cccn2c1=O	Up to 690 ng/ml ng/mL	–	–	10 days, none	–	79.1	45.2	–	–
CC(C)Cn1cnc2c(O)c(I)ccc2c1=O	–	–	–	–	–	111	68.2	At 10 mg/kg: Up to 309 ng/ml ng/mL	At 10 mg/kg: 10 days, none
CC(C)n1cnc2c(O)c(I)ccc2c1=O	Up to 277 ng/ml ng/mL	–	–	10 days, 1/4 deaths	–	–	–	–	–
CCCCNC(=O)C1=CN=C2C(O)=C(I)C=CN2C1	Up to 27,598 ng/ml ng/mL	–	–	10 days, none	–	85.3	63.4	–	–
Br.CNCc1nc2c(O)c(Cl)cc(Cl)c2c(=O)n1C	Up to 510.4 ng/mL	–	–	10 days, none	–	96	90.6	–	–
CCCn1cnc2c(O)c(I)ccc2c1=S	Up to 1593 ng/ml ng/mL	–	–	10 days, none	–	89.9	86.2	–	–
CCn1cnc2c(O)c(I)ccc2c1=S	Up to 400 ng/ml ng/mL	–	–	10 days, none, 1/4 mild signs	–	85.7	43	–	–
O=c1c2cccc(O)c2ncn1-c1ccc(Cl)cn1	Up to 6 ng/mL	–	–	10 days, none	–	107	122	–	–
O=C(NCc1ccccc1)c1cnc2c(O)cccn2c1=O	Up to 22.2 ng/mL	–	–	10 days, none	–	92.7	97.3	–	–
O=c1c2c(Cl)cc(Cl)c(O)c2ncn1Cc1cn2ccccc2n1	Up to 98.3 ng/mL	–	–	10 days, none	–	109	98.2	–	–
O=c1c2c(Cl)cc(Cl)c(O)c2ncn1Cc1cccnc1	Up to 4023.4 ng/mL	–	–	10 days, none	–	106	95.4	–	–
O=c1c2c(Cl)cc(Cl)c(O)c2ncn1Cc1ccncc1	Up to 2181.1 ng/mL	–	–	10 days, none	–	105	90.4	–	–
Cn1ccnc1Cn1cnc2c(O)c(Cl)cc(Cl)c2c1=O	Up to 13214.8 ng/mL	–	–	10 days, none	–	108	97.6	–	–
O=c1c2c(Cl)cc(Cl)c(O)c2ncn1-c1cc[nH]n1	Up to 1477.4 ng/mL	–	–	10 days, none	–	126	115	–	–
O=c1c2c(Cl)cc(Cl)c(O)c2ncn1-c1ccc2[nH]ncc2c1	Up to 126 ng/mL	–	–	10 days, none	–	96.2	88.9	–	–
O=c1c2c(Cl)cc(Cl)c(O)c2ncn1Cc1ccn2ccnc2c1	Up to 1465.4 ng/mL	–	–	10 days, none	–	105	105	–	–
